Measured values published in PMC8691714 (Cancer Research Communications, 2021).

What was measured:
[1] = parameters: method as in earlier work; settings: PBPK model parameter, ref [17, 18] and Drugbank, cited from earlier work
[2] = parameters: method as in earlier work; settings: PBPK model parameter, ref [17, 18] and Drugbank, cited from earlier work; remark: listed apart in the source
[3] = system: TMD8 cells; experiment: MTT viability assay, TMD8 cells, 72 hours; assay type: cell-based, human
Description: Cell viability was assessed after 72 hours of incubation.

[4] = parameters: method as in earlier work; settings: PBPK model parameter, ref [17, 18] and Drugbank, cited from earlier work; remark: listed apart in the source
[5] = system: BTK; experiment: Immunoblotting of BTK signaling in primary CLL cells; assay type: cell-based, human; settings: ibrutinib 1 μmol/L with cobicistat 1, 10 μmol/L
Description: Blood was drawn from patients with newly diagnosed, untreated CLL after receipt of written informed consent under a protocol approved by the Institutional Review Board of The Ohio State University (Columbus, OH) in accordance with the Declaration of Helsinki. B cells were isolated from whole blood using Rosette-Sep B (StemCell Technologies). Primary CLL cells were cultured in RPMI1640 medium supplemented with 10% FBS, 100 U/mL penicillin, 100 μg/mL streptomycin, and 2 mmol/L […]. […] After 1 hour, the cells were pelleted and resuspended in fresh media. For experiments with extended drug exposure, DMSO and cobicistat were added again after washout.
After 15 minutes of stimulation, cell lysates were collected and analyzed by SDS-PAGE. Protein was transferred to nitrocellulose and blots were probed with primary antibodies and horseradish peroxidase (HRP)-conjugated secondary antibodies. Blots were imaged using WesternBright chemiluminescent substrate (Advansta) on an X-ray film. Phosphorylated proteins were analyzed first, then antibodies were removed using Western Blot Stripping Buffer (Thermo Fisher Scientific) before analyzing total protein. Membranes were stripped after imaging total proteins before analyzing loading control. […] Loading controls were assessed for each membrane and are presented with corresponding proteins analyzed on the same membrane.

For `CC(C)c1nc(CN(C)C(=O)N[C@@H](CCN2CCOCC2)C(=O)N[C@H](CC[C@H](Cc2ccccc2)NC(=O)OCc2cncs2)Cc2ccccc2)cs1` [Cobicistat], the B/P ratio ([1]; blood to plasma ratio) is listed as 0.55, the “fu, plasma” value ([1]; unbound drug in the plasma) is listed as 0.020 and the pKa ([2]; acid dissociation constant) is listed as 6.69. The “Log Po:w” value ([2]; octanol/water partition coefficient) was 4.36, the “influence on the antileukemic activity of ibrutinib” value ([3]; cobicistat 0.1, 1 or 10 μmol/L) was “neither ketoconazole nor cobicistat negatively influenced” and the Ka [4] was “Ka (1/h)= 0.29”. The Clpo ([4]; oral clearance) was “Clpo (L/h) : 14”, the Vss ([4]; steady-state volume of distribution) was 0.46 L/kg and the “impact on ibrutinib's ability to suppress BTK signaling” value [5] was “did not impact”.
With `CC(=O)N1CCN(c2ccc(OCC3COC(Cn4ccnc4)(c4ccc(Cl)cc4Cl)O3)cc2)CC1` (stereo not shown) [Ketoconazole] the “influence on the antileukemic activity of ibrutinib” value ([3]; ketoconazole 0.1, 1 or 10 μmol/L) was “neither ketoconazole nor cobicistat negatively influenced”.
